Results taken from patent publication US20170275270A1, “BENZYL SUBSTITUTED INDAZOLES” (Bayer Pharma Aktiengesellschaft, priority 2014, published 2017).
Counter-ions that a name gives are not always drawn. Like-named read-outs stand apart in the source and are kept apart here.

Key:
[1] = target: T1, catalytic domain of human Bub1 (amino acids 704-1085) (Homo sapiens, UniProt O43683); assay: Bub1 kinase assay (TR-FRET); format: biochemical
T1 construct: catalytic domain of human Bub1 (amino acids 704-1085); His6 (N); made in house; host or cells: Hi5 insect cells
T1 sequence (O43683 704-1085): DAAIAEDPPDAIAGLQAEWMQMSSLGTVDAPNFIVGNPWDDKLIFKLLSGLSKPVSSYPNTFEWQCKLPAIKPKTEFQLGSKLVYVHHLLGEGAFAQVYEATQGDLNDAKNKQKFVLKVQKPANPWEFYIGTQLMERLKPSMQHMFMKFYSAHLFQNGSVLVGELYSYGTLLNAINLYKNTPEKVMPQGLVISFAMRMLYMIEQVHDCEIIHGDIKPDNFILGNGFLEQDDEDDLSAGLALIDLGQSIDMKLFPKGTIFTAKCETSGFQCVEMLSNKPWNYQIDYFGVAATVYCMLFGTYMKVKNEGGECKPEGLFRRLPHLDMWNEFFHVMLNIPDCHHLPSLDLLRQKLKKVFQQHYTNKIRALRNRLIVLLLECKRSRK
Outline: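 Compounds from 2 mM DMSO stocks, serially diluted 1:3.4, incubated with enzyme at 22° C for 60 min. Stopped with EDTA, then 1 h with streptavidin-XL665, anti-phosphoserine antibody and Eu-labelled anti-mouse IgG. Phosphorylated biotin-peptide read by TR-FRET; IC50 by 4-parameter logistic fit.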

[2] = tested on: HeLa; assay: Proliferation assay (HeLa cell line); details: Homo sapiens, 96 h, read-out: Biological Assay 2: Proliferation assay (HeLa cell line) median IC50;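 note: crystal violet staining of cell number, scaled between a plate stained before dosing (0%) and cells left untreated (100%), compounds tested at 0.001-10 µM, IC50 via 4-parameter fit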
Protocol: Cultivated tumor cells (cells were ordered from ATCC, except HeLa-MaTu and HeLa-MaTu-ADR, which were ordered from EPO-GmbH, Berlin) were plated at a density of 1000 to 5000 cells/well, depending on the growth rate of the respective cell line, in a 96-well multititer plate in 200 μL of their respective growth medium supplemented 10% fetal calf serum. After 24 hours, the cells of one plate (zero-point plate) were stained with crystal violet (see below), while the medium of the other plates was replaced by fresh culture medium (200 μL), to which the test substances were added in various concentrations (0 μM, as well as in the range of 0.001-10 μM; the final concentration of the solvent dimethyl sulfoxide was 0.5%). The cells were incubated for 4 days in the presence of test substances. Cell proliferation was determined by staining the cells with crystal violet: the cells were fixed by adding 20 μL measuring point of an 11% glutaric aldehyde solution for 15 minutes at room temperature. After three washing cycles of the fixed cells with water, the plates were dried at room temperature. The cells were stained by adding 100 μL/measuring point of a 0.1% crystal violet solution (pH 3.0). After three washing cycles of the stained cells with water, the plates were dried at room temperature. The dye was dissolved by adding 100 μl/measuring point of a 10% acetic acid solution. […] The change of cell number, in percent, was calculated by normalization of the measured values to the absorbtion values of the zero-point plate (=0%) and the absorbtion of the untreated (0 μm) cells (=100%). The IC50 values were determined by means of a 4 parameter fit.

[3] = target: Bub1 (Homo sapiens, UniProt O43683); assay: Formation-Assay: phosphorylation status of histone 2A by inhibition of kinase activity of Bub1; format: cell-based; details: Biological Assay 4.1: H2A Formation IC50, co-treatment with Nocodazole 1 μg/ml, 16 h
Chain of Bub1 (O43683 whole entry): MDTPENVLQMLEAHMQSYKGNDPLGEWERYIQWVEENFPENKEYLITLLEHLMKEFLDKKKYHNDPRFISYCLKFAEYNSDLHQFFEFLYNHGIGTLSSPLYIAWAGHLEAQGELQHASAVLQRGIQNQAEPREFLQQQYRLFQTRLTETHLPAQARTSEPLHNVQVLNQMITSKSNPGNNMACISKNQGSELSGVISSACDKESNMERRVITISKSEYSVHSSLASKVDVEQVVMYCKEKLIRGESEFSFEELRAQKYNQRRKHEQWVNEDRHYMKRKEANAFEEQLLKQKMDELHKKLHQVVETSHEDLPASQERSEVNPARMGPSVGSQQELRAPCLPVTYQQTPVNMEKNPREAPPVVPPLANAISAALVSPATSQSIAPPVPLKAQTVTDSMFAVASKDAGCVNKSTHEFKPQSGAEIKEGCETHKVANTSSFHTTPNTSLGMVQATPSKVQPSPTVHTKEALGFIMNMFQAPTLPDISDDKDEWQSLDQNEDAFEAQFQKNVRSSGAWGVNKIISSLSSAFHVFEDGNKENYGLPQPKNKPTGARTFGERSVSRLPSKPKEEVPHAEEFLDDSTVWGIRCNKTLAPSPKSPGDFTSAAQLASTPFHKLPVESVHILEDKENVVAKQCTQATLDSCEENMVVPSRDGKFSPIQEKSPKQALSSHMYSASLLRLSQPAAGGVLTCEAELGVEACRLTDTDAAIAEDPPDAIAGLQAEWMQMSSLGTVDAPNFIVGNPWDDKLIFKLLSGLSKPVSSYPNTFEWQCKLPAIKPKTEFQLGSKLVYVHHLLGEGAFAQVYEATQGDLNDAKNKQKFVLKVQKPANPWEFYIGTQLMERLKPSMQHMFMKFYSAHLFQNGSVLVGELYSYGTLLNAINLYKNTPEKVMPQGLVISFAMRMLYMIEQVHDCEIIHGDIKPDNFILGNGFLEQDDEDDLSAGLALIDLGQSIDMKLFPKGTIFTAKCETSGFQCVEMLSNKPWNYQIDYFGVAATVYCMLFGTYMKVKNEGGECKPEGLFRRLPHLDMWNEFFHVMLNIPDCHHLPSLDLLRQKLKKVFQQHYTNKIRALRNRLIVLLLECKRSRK
Protocol: Biological Assay 4.1: Formation-Assay
Cell-Based Mechanistic Assay: Changes of Phosphorylation Status of Histone 2A by Inhibition of Kinase Activity of Bub1
This assay determines the suppression of histone 2A phosphorylation by a Bub1 kinase inhibitor during co-treatment with Nocodazole. 25000 cells (cells were ordered from ATCC) were seeded in 96 well plate for 5 h at 37° C. Cells were treated with Nocodazole (1 μg/ml) and varying concentrations (between 3 nM and 10 μM) of test compounds for 16 h. Cells were fixed (20 min, Fixing solution R&D), washed three times with PBS and blocked with Odyssey blocking buffer before incubating with the primary antibody against phosphorylated H2A (5 μg/ml ABIN482721) overnight at 2-8° C. After washing, secondary IRDye-labeled antibody mix with cell stains was added for 1 h and washed again with PBS. Plates were scanned with LiCor Odyssey Infrared Imager CLx at 800 nm for P-H2A and at 700 nm for cell stains Draq5/Sapphire. The quotient of 800 nm and 700 nm for Nocodazole only treated cells was set as 100% and the quotient of 800 nm and 700 nm of untreated cells was set as 0%.
Histone H2A is an immediate intracellular substrate of Bub1 kinase. Determination of the phosphorylation status of Histone H2A provides a direct measure of the intracellular activity of Bub1 kinase.

[4] = tested on: HeLa human cervical tumor cells; assay: Proliferation assay (HeLa+Paclitaxel); details: read-out: Biological Assay 3: HeLa + Paclitaxel IC50, 3 nM paclitaxel, crystal violet;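 note: compounds at 0.001-10 µM added 4 h after paclitaxel, 92 h exposure, absorbance normalized to zero-point plate (0%) and untreated cells (100%), IC50 from 4-parameter fit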
Protocol: Proliferation Assay (HeLa+Paclitaxel):
Cultivated HeLa human cervical tumor cells (DSMZ ACC-57) were plated at a density of 3000 cells/well in a 96-well multititer plate in 200 μL of growth medium supplemented 10% fetal calf serum. After 24 hours, the cells of one plate (zero-point plate) were stained with crystal violet (see below). The medium of the other plates was supplemented with 3 nM of paclitaxel (Sigma-Aldrich) and the cells were incubated at 37° C. After 4 hours the test substances were added in various concentrations (0 μM, as well as in the range of 0.001-10 μM; the final concentration of the solvent dimethyl sulfoxide was adjusted to 0.1%) using a Hewlett-Packard HP D300 Digital Dispenser. The cells were incubated for another 92 hours at 37° C. in the presence of test substances. Cell proliferation was determined by staining the cells with crystal violet: the cells were fixed by adding 20 μL/measuring point of an 11% glutaric aldehyde solution for 15 minutes at room temperature. After three washing cycles of the fixed cells with water, the plates were dried at room temperature. The cells were stained by adding 100 μL/measuring point of a 0.1% crystal violet solution (pH 3.0). After three washing cycles of the stained cells with water, the plates were dried at room temperature. The dye was dissolved by adding 100 μL/measuring point of a 10% acetic acid solution. […] The change of cell number, in percent, was calculated by normalization of the measured values to the absorbtion values of the zero-point plate (=0%) and the absorbtion of the untreated (0 μm) cells (=100%). The IC50 values were determined by means of a 4 parameter fit.

[5] = Biological Assay 1: Bub1 kinase assay median IC50, 10 μM ATP
[6] = 10 μM ATP, read-out: Biological Assay 1: Bub1 kinase assay median IC50

IC50 [1, 5] [µM] | IC50 [2] [µM] | IC50 [3] [µM] | IC50 [4] [µM] | IC50 [1, 6] [µM] | SMILES
0.018 | > 10 | 0.01 | 1.2 |  | OCCOc1cc(F)c(Cn2nc(-c3nc4c(c(Nc5ccnnc5)n3)CCC4)c3ccccc32)c(F)c1 [Example 2-4-10, 2-[3,5-difluoro-4-({3-[4-(pyridazin-4-ylamino)-6,7-dihydro-5H-cyclopenta[d]pyrimidin-2-yl]-1H-indazol-1-yl}methyl)phenoxy]ethanol, salt with hydrochloric acid]
0.088 | > 10 | 1.9 | 0.12 |  | Cc1cc(Nc2nc(-c3nn(Cc4c(F)cc(OCCO)cc4F)c4ccccc34)nc3c2CCC3)ncn1 [Example 2-4-11, 2-{3,5-difluoro-4-[(3-{4-[(6-methylpyrimidin-4-yl)amino]-6,7-dihydro-5H-cyclopenta[d]pyrimidin-2-yl}-1H-indazol-1-yl)methyl]phenoxy}ethanol]
 | 1.1 | 2.3 | 3.3 | 0.048 | Cc1cc(Nc2nc(-c3nn(Cc4c(F)cc(OCCO)cc4F)c4ccccc34)nc3c2CCC3)ccn1 [Example 2-4-12, 2-{3,5-difluoro-4-[(3-{4-[(2-methylpyridin-4-yl)amino]-6,7-dihydro-5H-cyclopenta[d]pyrimidin-2-yl}-1H-indazol-1-yl)methyl]phenoxy}ethanol]
 | 1.4 | 0.052 | 0.17 | 0.0091 | CCOc1cc(F)c(Cn2nc(-c3nc(CO)cc(Nc4ccncc4C)n3)c3ccccc32)c(F)c1 [Example 2-6-4, {2-[1-(4-ethoxy-2,6-difluorobenzyl)-1H-indazol-3-yl]-6-[(3-methylpyridin-4-yl)amino]pyrimidin-4-yl}methanol]
0.044 | > 10 | 2.3 | 2.1 |  | Cc1nccc(Nc2nc(-c3nn(Cc4c(F)cc(O)cc4F)c4ccccc34)nc3c2CCC3)n1 [Example 2-6-12, 3,5-difluoro-4-[(3-{4-[(2-methylpyrimidin-4-yl)amino]-6,7-dihydro-5H-cyclopenta[d]pyrimidin-2-yl}-1H-indazol-1-yl)methyl]phenol]
0.053 | 9.7 | 0.0084 | 0.39 |  | CC(=O)Nc1cc(Nc2nc(-c3nn(Cc4c(F)cc(OCCO)cc4F)c4ccccc34)ncc2C2CCN(CC(F)(F)F)CC2)ccn1 [Example 2-6-13, N-{4-[(2-{1-[2,6-difluoro-4-(2-hydroxyethoxy)benzyl]-1H-indazol-3-yl}-5-[1-(2,2,2-trifluoroethyl)piperidin-4-yl]pyrimidin-4-yl)amino]pyridin-2-yl}acetamide]
0.036 | 2.4 | 0.0071 | 0.34 |  | OCCOc1cc(F)c(Cn2nc(-c3ncc(C4CCN(CC(F)(F)F)CC4)c(Nc4ccncc4Cl)n3)c3ccccc32)c(F)c1 [Example 2-6-14, 2-{4-[(3-{4-[(3-chloropyridin-4-yl)amino]-5-[1-(2,2,2-trifluoroethyl)piperidin-4-yl]pyrimidin-2-yl}-1H-indazol-1-yl)methyl]-3,5-difluorophenoxy} ethanol]
0.031 | 2.2 | 0.019 | 0.18 |  | OCCOc1cc(F)c(Cn2nc(-c3ncc(C4CCN(CCC(F)(F)F)CC4)c(Nc4ccncc4Cl)n3)c3ccccc32)c(F)c1 [Example 2-6-15, 2-{4-[(3-{4-[(3-chloropyridin-4-yl)amino]-5-[1-(3,3,3-trifluoropropyl)piperidin-4-yl]pyrimidin-2-yl}-1H-indazol-1-yl)methyl]-3,5-difluorophenoxy} ethanol]
0.55 | > 10 | 0.00056 | 0.06 |  | Cc1nccc(Nc2nc(-c3nn(Cc4c(F)cc(OCCO)cc4F)c4ccccc34)ncc2C2CCN(CC(F)(F)F)CC2)n1 [Example 2-6-16, 2-{3,5-difluoro-4-[(3-{4-[(2-methylpyrimidin-4-yl)amino]-5-[1-(2,2,2-trifluoroethyl)piperidin-4-yl]pyrimidin-2-yl}-1H-indazol-1-yl)methyl]phenoxy}ethanol]
